As usually defined, the IC50 is the concentration that inhibits the measured activity by half.

SMILES strings stand for the structures. Some results are limits rather than exact numbers.

The text below walks through data of US20230257415A1, “COMPOUNDS FOR TREATING CNS DISORDERS” (SAGE THERAPEUTICS, INC., priority 2019, published 2023).

For this experiment, the target named is GABAA receptor. Briefly: [35S]-TBPS binding assay, rat brain cortical membranes, in the presence of GABA. The note with it: inhibition of 3 nM [35S]-TBPS binding, 5 mM GABA, 90 min, room temp. On the procedure: [35S]-t-Butylbicyclophosphorothionate (TBPS) binding assays using rat brain cortical membranes in the presence of 5 mM GABA has been described (Gee et al, J. Pharmacol. Exp. Ther. 1987, 241, 346-353; Hawkinson et al, Mol. Pharmacol. 1994, 46, 977-985; Lewin, A.H et al., Mol. Pharmacol. 1989, 35, 189-194).
Briefly, cortices are rapidly removed following decapitation of carbon dioxide-anesthetized Sprague-Dawley rats (200-250 g). The cortices are homogenized in 10 volumes of ice-cold 0.32 M sucrose using a glass/teflon homogenizer and centrifuged at 1500 x g for 10 min at 4° C. The resultant supernatants are centrifuged at 10,000 x g for 20 min at 4° C. to obtain the P2 pellets. The P2 pellets are resuspended in 200 mM NaCl/50 mM Na-K phosphate pH 7.4 buffer and centrifuged at 10,000 x g for 10 min at 4° C. This washing procedure is repeated twice and the pellets are resuspended in 10 volumes of buffer. Aliquots ([…]) of the membrane suspensions are incubated with 3 nM [^35S]-TBPS and […] aliquots of test drug dissolved in dimethyl sulfoxide (DMSO) (final 0.5%) in the presence of 5 mM GABA. The incubation is brought to a final volume of 1.0 mL with buffer. […] Following a 90 min incubation at room temp, the assays are terminated by filtration through glass fiber filters (Schleicher and Schuell No. 32) using a cell harvester (Brandel) and rinsed three times with ice-cold buffer. Filter bound radioactivity is measured by liquid scintillation spectrometry. Non-linear curve fitting of the overall data for each drug averaged for each concentration is done using Prism (GraphPad). […] The concentration of test compound producing 50% inhibition (IC50) of specific binding and the maximal extent of inhibition (Imax) are determined for the individual experiments with the same model used for the overall data and then the means ± SEM.s of the individual experiments are calculated.
Various compounds are or can be screened to determine their potential as modulators of [^35S]-TBPS binding in vitro. These assays are or can be performed in accordance with the above.
`CN(C[C@H]1CCC[C@H]2[C@@H]3CC[C@@H]4C[C@](C)(O)CC[C@@H]4[C@H]3CC[C@]12C)S(=O)(=O)c1ccccc1` [Example 26, N-(((1S,4aS,4bR,6aR,8R,10aS,10bR,12aS)-8-hydroxy-8,12a-dimethyloctadecahydrochrysen-1-yl)methyl)-N-methylbenzenesulfonamide]: the IC50 is less than 0.1 µM.

Regarding `CCOC[C@@]1(O)CC[C@@H]2C3CC[C@]4(C)[C@@H]([C@@H](C)NC(=O)c5ccc(F)cc5F)CCC[C@H]4[C@@H]3CC[C@@H]2C1` (stereo partly drawn) [Example 52, N-((1R)-1-((1S,4aS,4bR,6aR,8R,10aS,12aS)-8-(ethoxymethyl)-8-hydroxy-12a-methyloctadecahydrochrysen-1-yl)ethyl)-2,4-difluorobenzamide], the IC50 was 0.1 to 1 µM.

In the case of `CCC[C@@]1(O)CC[C@H]2[C@@H](CC[C@@H]3[C@@H]2CC[C@]2(C)[C@@H]([C@H](C)Cn4nnnc4C)CCC[C@@H]32)C1` [Example 7, (2R,4aS,4bR,6aS,7R,10aS,10bR,12aS)-6a-methyl-7-((S)-1-(5-methyl-1H-tetrazol-1-yl)propan-2-yl)-2-propyloctadecahydrochrysen-2-ol], the IC50 was not below 1 µM. `CCOC[C@@]1(O)CC[C@@H]2C3CC[C@]4(C)[C@@H]([C@H](C)NC(=O)c5ccc(C#N)cc5F)CCC[C@H]4[C@@H]3CC[C@@H]2C1` (stereo partly drawn) [Example 55]: the IC50 is 0.1 to 1 µM.

Regarding `COC[C@@]1(O)CC[C@H]2[C@H](CC[C@@H]3[C@@H]2CC[C@]2(C)[C@@H]([C@@H](C)Cn4cc(C#N)cn4)CCC[C@@H]32)C1` [Example 3, 1-((R)-2-((1R,4aS,4bR,6aR,8R,10aS,10bR,12aS)-8-hydroxy-8-(methoxymethyl)-12a-methyloctadecahydrochrysen-1-yl)propyl)-1H-pyrazole-4-carbonitrile], the IC50 was less than 0.1 µM. The value for `COC[C@@]1(O)CC[C@H]2[C@H](CC[C@@H]3[C@@H]2CC[C@]2(C)[C@@H]([C@H](C)Cn4cc(C#N)cn4)CCC[C@@H]32)C1` [Example 2, 1-((S)-2-((1R,4aS,4bR,6aR,8R,10aS,10bR,12aS)-8-hydroxy-8-(methoxymethyl)-12a-methyloctadecahydrochrysen-1-yl)propyl)-1H-pyrazole-4-carbonitrile] was less than 0.1 µM; that for `C[C@@H]1CC[C@H]([C@@H](C)Cn2cc(C#N)cn2)[C@@]2(C)CC[C@H]3[C@@H](CC[C@@H]4C[C@](C)(O)CC[C@@H]43)[C@H]12` [Example 11, 1-((R)-2-((1R,4R,4aS,4bR,6aR,8R,10aS,10bR,12aR)-8-hydroxy-4,8,12a-trimethyloctadecahydrochrysen-1-yl)propyl)-1H-pyrazole-4-carbonitrile] was less than 0.1 µM. Regarding `C[C@@H](Cn1cc(C#N)cn1)[C@H]1CCC[C@H]2[C@@H]3CC[C@@H]4C[C@](C)(O)CC[C@@H]4[C@H]3CC[C@]12C` [Example 4, 1-((R)-2-((1R,4aS,4bR,6aR,8R,10aS,10bR,12aS)-8-hydroxy-8,12a-dimethyloctadecahydrochrysen-1-yl)propyl)-1H-pyrazole-4-carbonitrile], the IC50 is less than 0.1 µM. As to `C[C@H](Cn1cc(C#N)cn1)[C@H]1CC[C@H]2[C@@H]3CC=C4CC[C@](C)(O)CC[C@]4(C)[C@H]3CC[C@]12C` [Example 18, 1-((S)-2-((1R,3aS,3bS,8S,10aR,10bS,12aS)-8-hydroxy-8,10a,12a-trimethyl-1,2,3,3a,3b,4,6,7,8,9,10,10a,10b,11,12,12a-hexadecahydrocyclohepta[a]cyclopenta[f]naphthalen-1-yl)propyl)-1H-pyrazole-4-carbonitrile], the IC50 was less than 0.1 µM. As to `CC[C@]12CC[C@H]3[C@@H](CC[C@@H]4C[C@](C)(O)CC[C@@H]43)[C@@H]1CCC[C@@H]2[C@H](C)NC(=O)c1ccc(C#N)cc1` [Example 54, 4-cyano-N-((S)-1-((1S,4aS,4bR,6aR,8R,10aS,10bR,12aS)-12a-ethyl-8-hydroxy-8-methyloctadecahydrochrysen-1-yl)ethyl)benzamide], the concentration for half-maximal inhibition (IC50) was in the range of 0.1 to 1 µM.

In the case of `CCC[C@@]1(O)CC[C@@]2(C)[C@@H](CC[C@@H]3[C@@H]2CC[C@]2(C)[C@@H]([C@@H](C)Cn4nnc(C)n4)CCC[C@@H]32)C1` [Example 9, (2R,4aS,4bS,6aS,7R,10aS,10bR,12aS)-4a,6a-dimethyl-7-((R)-1-(5-methyl-2H-tetrazol-2-yl)propan-2-yl)-2-propyloctadecahydrochrysen-2-ol], the IC50 fell in the range of 0.1 to 1 µM. The same measure for `C[C@@]1(O)CC[C@H]2[C@H](CC[C@@H]3[C@@H]2CC[C@]2(C)[C@@H](CNC(=O)c4ccc(C#N)cc4)CCC[C@@H]32)C1` [Example 34, 4-cyano-N-(((1S,4aS,4bR,6aR,8R,10aS,10bR,12aS)-8-hydroxy-8,12a-dimethyloctadecahydrochrysen-1-yl)methyl)benzamide]: 0.1 to 1 µM. The value for `C[C@@]1(O)CC[C@H]2[C@H](CC[C@@H]3[C@@H]2CC[C@]2(C)[C@@H](CNC(=O)c4cccnc4)CCC[C@@H]32)C1` [Example 35, N-(((1S,4aS,4bR,6aR,8R,10aS,10bR,12aS)-8-hydroxy-8,12a-dimethyloctadecahydrochrysen-1-yl)methyl)nicotinamide] was 0.1 to 1 µM; that for `C[C@H](Cn1cc(C#N)cn1)[C@H]1CC[C@H]2[C@@H]3CC[C@H]4CC[C@](C)(O)CC[C@]4(C)[C@H]3CC[C@]12C` [Example 20, 1-((S)-2-((1R,3aS,3bR,5aS,8S,10aS,10bS,12aS)-8-hydroxy-8,10a,12a-trimethyloctadecahydrocyclohepta[a]cyclopenta[f]naphthalen-1-yl)propyl)-1H-pyrazole-4-carbonitrile] was less than 0.1 µM. The same measure for `CC[C@]12CC[C@@](C)(O)C[C@H]1CC[C@H]1[C@@H]3CCC[C@H](CN(C)C(=O)c4ccccc4)[C@@]3(C)CC[C@@H]12` [Example 37, N-(((1S,4aS,4bS,6aR,8R,10aS,10bS,12aS)-10a-ethyl-8-hydroxy-8,12a-dimethyloctadecahydrochrysen-1-yl)methyl)-N-methylbenzamide]: 0.1 to 1 µM; for `C[C@@]1(O)CC[C@H]2[C@H](CC[C@@H]3[C@@H]2CC[C@]2(C)[C@@H](CNS(=O)(=O)c4ccccc4)CCC[C@@H]32)C1` [Example 25, N-(((1S,4aS,4bR,6aR,8R,10aS,10bR,12aS)-8-hydroxy-8,12a-dimethyloctadecahydrochrysen-1-yl)methyl)benzenesulfonamide]: less than 0.1 µM; for `Cn1nccc1C(=O)NC[C@H]1CCC[C@H]2[C@@H]3CC[C@@H]4C[C@](C)(O)CC[C@@H]4[C@H]3CC[C@]12C` [Example 33, N-(((1S,4aS,4bR,6aR,8R,10aS,10bR,12aS)-8-hydroxy-8,12a-dimethyloctadecahydrochrysen-1-yl)methyl)-1-methyl-1H-pyrazole-5-carboxamide]: 0.1 to 1 µM. Regarding `CC[C@]12CC[C@@](C)(O)C[C@H]1CC[C@H]1[C@@H]3CCC[C@H](CNC(=O)c4ccccc4)[C@@]3(C)CC[C@@H]12` [Example 36, N-(((1S,4aS,4bS,6aR,8R,10aS,10bS,12aS)-10a-ethyl-8-hydroxy-8,12a-dimethyloctadecahydrochrysen-1-yl)methyl)benzamide], the IC50 is 0.1 to 1 µM. The same measure for `C[C@H](Cn1cc(C#N)cn1)[C@H]1CC[C@H]2[C@@H]3CC[C@@H]4C[C@](C)(O)CCC[C@@H]4[C@H]3CC[C@]12C` [Example 22, 1-((S)-2-((1R,3aS,3bR,5aR,7R,10aS,10bR,12aS)-7-hydroxy-7,12a-dimethyloctadecahydrocyclohepta[a]cyclopenta[f]naphthalen-1-yl)propyl)-1H-pyrazole-4-carbonitrile]: less than 0.1 µM; for `C[C@@H](Nc1ccc(C#N)cc1)[C@H]1CCC[C@H]2[C@@H]3CC[C@@H]4C[C@](C)(O)CC[C@@H]4C3CC[C@]12C` (stereo partly drawn) [Example 51, 4-(((1R)-1-((1S,4aS,4bR,6aR,8R,10aS,12aS)-8-hydroxy-8,12a-dimethyloctadecahydrochrysen-1-yl)ethyl)amino)benzonitrile]: less than 0.1 µM; for `C[C@H](Nc1ccc(C#N)cc1)[C@H]1CCC[C@H]2[C@@H]3CC[C@@H]4C[C@](C)(O)CC[C@@H]4C3CC[C@]12C` (stereo partly drawn) [Example 50, 4-(((1S)-1-((1S,4aS,4bR,6aR,8R,10aS,12aS)-8-hydroxy-8,12a-dimethyloctadecahydrochrysen-1-yl)ethyl)amino)benzonitrile]: less than 0.1 µM.
